Data published in paper PMC4855506 (Journal of molecular and cellular cardiology, 2011).

Test: coupled proteolysis-cGMP elevation bioassay with protease inhibitors
Format: in vitro ADME, human
[1] = Fig. 2B, 30 min, 37 °C, human kidney membranes, 293-GC-A cells, n=4

Q: With B-type natriuretic peptide [BNP] as the substance, how does the “effect of leupeptin on degradation” value [1] read?
A: Its value is “completely blocked the degradation”.

Q: And the “effect of phosphoramidon on degradation” value [1]?
A: The value was “failed to preserve the activity”.

Q: What about the “effect of boiling the membranes before peptide exposure” value (Fig. 2B, 30 min, 37 °C, 293-GC-A cells, n=4) of the same substance?
A: The value was “blocked inactivation”.

Q: For C-type natriuretic peptide [CNP], which “effect of boiling the membranes prior to peptide exposure” value (Fig. 2A, 30 min, 37 °C, boiled human kidney membranes, n=8) is on record?
A: The value was “abolished membrane-dependent inactivation”.

Q: What about the “effect of actinonin together with phosphoramidon” value (Fig. 2A, 30 min, 37 °C, human kidney membranes, n=8) of the same substance?
A: Its value is “did not further increase activity above that seen with phosphoramidon alone”.

Q: What about the “activity loss blocked by phosphoramidon” value (Fig. 2A, NEP inhibitor phosphoramidon, 30 min, 37 °C, human kidney membranes, n=8) of the same substance?
A: The value was “about 40%”.

Q: And the “effect of actinonin alone on inactivation” value (Fig. 2A, meprin inhibitor actinonin, 30 min, 37 °C, human kidney membranes, n=8)?
A: Its value is “did not block inactivation”.

Q: What about the “effect of leupeptin on inactivation” value (Fig. 2A, serine-threonine-cysteine protease inhibitor leupeptin, 30 min, 37 °C, human kidney membranes, n=8) of the same substance?
A: The value was “did not statistically increase the bioactivity”.

Q: And the “increase of bioactivity on inhibition of NEP in kidney membranes” value (phosphoramidon, human kidney membranes, 30 min, 37 °C (Fig. 2A))?
A: Its value is 8 fold.

Q: Which “activity in the presence of phosphoramidon” value (Fig. 2C, 120 min, 37 °C, human kidney membranes, human GC-A read-out, n=4) does the source give for Dendroaspis natriuretic peptide [DNP] here?
A: Its value is “significantly less than control values”.
